The results in this text go back to patent US9988361B2, “Anti-enterovirus 71 thiadiazolidine derivative” (JIANGSU KANION PHARMACEUTICAL CO. LTD, priority 2014, dated 2018).

SMILES strings stand for the structures.

In the experiment the test system is EV71 virus strain Shenzhen/120F1/09. Put plainly: EV71 in-vitro cytopathic effect (CPE) test. The settings on record: Enterovirus A, 72 h; RD cells, EV71 100 TCID50, 3 days, CCK8 readout; read-out: EC50 by EC71 CPE test, EV71. Format: cell-based, RD cells of human rhabdomyoma. The protocol:
Test of EV71 In-Vitro Cytopathic Effect (CPE) To test the in-vitro antiviral activity and cytotoxicity of a compound to HFMD virus EV71 by means of cytopathic effect (CPE) test. […] Cell line: RD cells of human rhabdomyoma • 3. Cell culture media: DMEM medium added with 10% serum, Penicillin/Streptomycin and L-[…]×) • 4. […] Cell inoculation: digest off the RD cells from the attached state, then dilute them with culture medium to a density of 80000/ml and inoculate 100 μl into the micro wells the 96-well plate. • 2. Dilution of compound: • Step 1: prepare the dry powder of a compound to test into a 10 mM solution in DMSO. Then dilute the compound by three times to eight concentration points. Dilute the reference compounds with the same method. • Step 2: further dilute the diluted solution of the compound in DMSO with cell culture medium. Add 10 μl DMSO solution for each well into 240 μl culture medium. • 3. Add the diluted compound solution by 50 μl each well into the 96-well plate inoculated with cells (double holes, final concentration of DMSO is 1%). • 4. Dilution of virus: dilute EV71 virus solution by 10000 times to a concentration of 100 TCID50/50 μl/. Add the diluted virus solution by 50 μl each well into the 96-well plate. Prepare another 96-well plate to replace the virus with culture medium and similarly inoculate the cells. Add the compound to test the toxicity of compound on cells. • 5. Cultivate the 96-well plate 3 days at the conditions of 37° C. and 5% CO2. • 6. EC50 and CC50 tests: add the cellular activity test reagent CCK8 into the micro-wells by 20 μl/well. Use ELIASA to read the absorbancy at the wavelength of 450 nm and 630 nm. • 7.
In general terms: Damage to the host cells serves as the signal in cytopathic effect assays.
By EC50 is commonly meant the concentration giving half of the maximal effect. As for `CCO/N=C/c1ccc(OCCCCCN2CCN(c3ccnc(NC)c3)S2(=O)=O)cc1` [Embodiment 41, (E)-4-((5-(5-(2-(methylamino)-pyridin-4-yl)-1,1-dioxide-1,2,5-thiadiazolidine-2-yl)-pentyl)-oxy)-benzaldehyde-O-ethyl ketoxime], the EC50 was below 50 nM. Take `CCCc1nc2ccc(OCCCCCN3CCN(c4ccnc(N)c4)S3(=O)=O)cc2o1` [Embodiment 66, 2-(2-amino-pyridin-4-yl)-5-(5-((2-propyl-benzo[d]oxazole-6-yl)-oxy)-pentyl)-1,2,5-thiadiazolidine-1,1-dioxide]: the EC50 was 50 to 100 nM. With `CCn1nnc(-c2ccc(OCCCCCN3CCN(c4ccnc(N)c4)S3(=O)=O)cc2)n1` [Embodiment 27, 4-(5-(5-(4-(2-ethyl-tetrazol-5-yl)-phenoxy)-pentyl)-1,1-dioxide-1,2,5-thiadiazolidine-2-yl)-pyridin-2-amine] the figure was below 50 nM; with `CCO/N=C/c1ccc(OCCOCCN2CCN(c3ccnc(N)c3)S2(=O)=O)cc1` [Embodiment 55], 100 to 500 nM.

With `CCO/N=C1\CCc2cc(OCCCCCN3CCN(c4ccnc(N)c4F)S3(=O)=O)ccc21` [Embodiment 48, (E)-2-(2-amino-3-fluoropyridin-4-yl)-5-(5-((1-(ethoxy-imino)-2,3-dihydro-1H-indene-5-yl)-oxy)-pentyl)-1,2,5-thiadiazolidine-1,1-dioxide], the EC50 was 100 to 500 nM. Consider `CCO/N=C/c1ccc(OCCCCCN2CCN(c3ccc(C#N)cc3)S2(=O)=O)cc1` [Embodiment 44], for which the EC50 lay within 50 to 100 nM.

Turning to `CCc1nnc(-c2ccc(OCCCCCN3CCN(c4ccnc(N)c4)S3(=O)=O)cc2)o1` [Embodiment 63, 4-(5-(5-(4-(5-ethyl-1,3,4-oxadiazol-2-yl)-phenoxy)-pentyl)-1,1-dioxo-1,2,5-thiadiazolidine-2-yl)-pyridin-2-amine], the EC50 fell in the range of 100 to 500 nM.

As to `O=S1(=O)N(CCCCCOc2ccc(-c3ccc(Cl)cc3)cc2)CCN1c1ccncc1` [Embodiment 6, 2-(5-((4′-chloro-[1,1′-biphenyl]-4-yl)oxy)pentyl)-5-(pyridin-4-yl)-1,2,5-thiadiazolidine-1,1-dioxide], the EC50 fell in the range of 50 to 100 nM. With `CC(C)O/N=C/c1ccc(OCCCCCN2CCN(c3ccnc(N)c3)S2(=O)=O)cc1` [Embodiment 53, (E)-4-((5-(5-(2-amino-pyridin-4-yl)-1,1-dioxide-1,2,5-thiadiazolidine-2-yl)-pentyl)-oxy)-benzaldehyde-O-isopropyl oxime] the figure was below 50 nM; with `CCO/N=C/c1ccc(OCCC(C)CCN2CCN(c3ccnc(N)c3)S2(=O)=O)cc1` (stereo not drawn) [Embodiment 17, (E)-4-((5-(5-(2-amino-pyridin-4-yl)-1,1-dioxo-1,2,5-thiadiazolidine-2-yl)-3-methyl-pentyl)-oxy)-benzaldehyde-O-ethylketoxime], below 50 nM; with `CCn1nnc(-c2ccc(OCCCCCN3CCN(c4ccnc(N)c4)S3(=O)=O)nc2)n1` [Embodiment 74, 4-(5-(5-((5-(2-ethyl-tetrazol-5-yl)-2-pyridinyl)-oxy)-pentyl)-1,1-dioxo-1,2,5-thiadiazolidine-2-yl)-pyridin-2-amine], below 50 nM.

Take `CCO/N=C/c1ccc(OCCCCCN2CCN(c3nccs3)S2(=O)=O)cc1` [Embodiment 35, (E)-4-((5-(1,1-dioxide-5-(thiazol-2-yl)-1,2,5-thiadiazolidine-2-yl)-pentyl)-oxy)-benzaldehyde-O-ethyl ketoxime]: the EC50 is 100 to 500 nM. With `CCO/N=C/c1ccc(OCCCCCN2CCN(c3ccnc(C(=O)OC)c3)S2(=O)=O)cc1` [Embodiment 37] the figure was 500 to 1000 nM; with `Cn1nnc(-c2ccc(OCCCCCN3CCN(c4ccnc(N)c4)S3(=O)=O)cc2)n1` [Embodiment 61, 2-(2-amino-pyridin-4-yl)-5-(5-(4-(2-methyl-2H-tetrazol-5-yl)-phenoxy)-pentyl)-1,2,5-thiadiazolidine-1,1-dioxide], below 50 nM.

`CCO/N=C/c1ccc(OCCCCN2CCN(c3ccnc(N)c3)S2(=O)=O)cc1` [Embodiment 26]: the EC50 was in the range of 100 to 500 nM. With `CCO/N=C1\CCc2cc(OCCCCCN3CCN(c4ccnc(NCCO)c4)S3(=O)=O)ccc21` [Embodiment 51, (E)-2-(5-((1-(ethoxy-imino)-2,3-dihydro-1H-inden-5-yl)-oxy)-pentyl)-5-(2-((2-hydroxyethyl)-amino)-pyridin-4-yl)-1,2,5-thiadiazolidine-1,1-dioxide] the figure was below 50 nM.

With `CCO/N=C/c1ccc(OCCCCCN2CCN(c3ccnc(F)c3)S2(=O)=O)cc1` [Embodiment 39, (E)-4-((5-(5-(2-Fluoro-4-yl)-1,1-dioxide-1,2,5-thiadiazolidine-2-yl)-pentyl)-oxy)-benzaldehyde-O-ethyl ketoxime], the EC50 is 50 to 100 nM. With `CCO/N=C/c1ccc(OCCCCCN2CCN(c3cc(N)ncn3)S2(=O)=O)cc1` [Embodiment 38, (E)-4-((5-(5-(6-amino-pyrimidin-4-yl)-1,1-dioxide-1,2,5-thiadiazolidine-2-yl)-pentyl)-oxy)-benzaldehyde-O-ethyl ketoxime] the figure was below 50 nM; with `CCOc1noc2cc(OCCCCCN3CCN(c4ccncc4)S3(=O)=O)ccc12` [Embodiment 12, 2-(5-((3-ethoxy-benzo[d]isoxazole-6-yl)-oxy)pentyl)-5-(pyridin-4-yl)-1,2,5-thiadiazolidine-1,1-dioxide], below 50 nM. For `CCn1ncc(-c2ccc(OCCCCCN3CCN(c4ccnc(N)c4)S3(=O)=O)cc2)n1` [Embodiment 64, 2-(2-amino-pyridin-4-yl)-5-(5-(4-(2-ethyl-2H-1,2,3-triazol-4-yl)-phenoxy)-pentyl)-1,2,5-thiadiazolidine-1,1-dioxide], the EC50 was below 50 nM. Turning to `CCO/N=C/c1ccc(OCCCCCCN2CCN(c3ccnc(N)c3)S2(=O)=O)cc1` [Embodiment 25, (E)-4-((6-(5-(2-aminopyridin-4-yl)-1,1-dioxide-1,2,5-thiadiazolidine-2-yl)-hexyl)-oxy)-benzaldehyde-O-ethyl ketoxime], the EC50 was below 50 nM.

As for `CCO/N=C1\CCc2cc(OCCC(F)(F)CCN3CCN(c4ccnc(N)c4)S3(=O)=O)ccc21` [Embodiment 31, (E)-2-(2-amino-pyridin-4-yl)-5-(5-((1-(ethoxy-imino)-2,3-dihydro-1H-inden-5-yl)-oxy)-3,3-difluoropentyl)-1,2,5-thiadiazolidine-1,1-dioxide], the concentration for a half-maximal effect (EC50) was in the range of 100 to 500 nM. With `CCO/N=C/c1ccc(OCCCCCN2CCN(c3ccnc(N(C)C)c3)S2(=O)=O)cc1` [Embodiment 43, (E)-4-((5-(5-(2-(dimethylamino)-pyridin-4-yl)-1,1-dioxide-1,2,5-thiadiazolidine-2-yl)-pentyl)-oxy)-benzaldehyde-O-ethyl ketoxime] the figure was 100 to 500 nM; with `CCO/N=C1\CCc2cc(OCCCCCN3CCN(c4ccsc4)S3(=O)=O)ccc21` [Embodiment 46, (E)-2-(5-((1-(ethoxy-imino)-2,3-dihydro-1H-inden-5-yl)-oxy)-pentyl)-5-(thiophen-3-yl)-1,2,5-thiadiazolidine-1,1-dioxide], 100 to 500 nM.
